EPA's ToxValDB 9.5
Several values for one entry are separate records, joined by “and”; a condition that tells them apart may be missing. Equal entries are not always repeated. Blank lines part the entries; values can stand above or below the compound they belong to.

Columns and labels:
Rattus norvegicus [1] = settings: oral
Mus musculus [2] = settings: for LD50: acute; for LOAEL / NOAEL: gavage; for LOAEL / NOAEL / NOAEL (% diet) / LOAEL (% diet): CD1; for NOAEL (% diet) / LOAEL (% diet): duration: 105 days, drinking water
Rattus norvegicus [3] = settings: for LD50: acute, Wistar; for LOAEL / NOAEL: duration: 19 days, inhalation, Sprague-Dawley
Rattus norvegicus [4] = settings: repeat dose other; oral
Mus musculus [5] = settings: uterotrophic, duration: 3 days, Active
Rattus norvegicus [6] = settings: uterotrophic, Active
Rattus norvegicus [7] = settings: short-term; duration: 28 days; oral; gavage; Sprague-Dawley
Mus musculus [8] = settings: repeat dose other; oral
[9] = reproduction developmental, oral, generation: F1
[10] = reproduction developmental, oral, F
[11] = reproduction developmental, duration: 55 days, oral, generation: F0
[12] = reproduction developmental, duration: 112 days, oral, generation: F0
[13] = reproduction developmental, duration: 112 days, oral, generation: F1

SMILES: CCCCCCCCCC [Decane]
- NOAEL (Rattus norvegicus [1]; subchronic, duration: 8 weeks, gavage, M/F, Sprague-Dawley): 1000 mg/kg-day

SMILES: CCN(C=O)CC [Diethylformamide]
- NOAEL (Rattus norvegicus [1]; chronic, duration: 73 weeks, gavage, M, Wistar, Whole Body Effects): 1.1 mg/kg-day

SMILES: CCO [Ethanol]
- LD50 (Mus musculus [2]; injection, Intraperitoneal, Swiss-Webster): 9200 mg/kg
- LD50 (Mus musculus [2]; oral, NMRI): 8300 mg/kg
- LOAEL (Mus musculus [2]; developmental, oral): > 6400 mg/kg-day
- NOAEL (Mus musculus [2]; developmental, oral): ≥ 6400 mg/kg-day
- NOAEL (% diet) (Mus musculus [2]; reproduction developmental, oral, generation: F0): 15
- LOAEL (% diet) (Mus musculus [2]; [9]): 15
- NOAEL (% diet) (Mus musculus [2]; [9]): 10
- LOAEL (% diet) (Mus musculus [2]; reproduction developmental, oral, generation: F2): > 15
- LOAEL (Mus musculus [2]; [10]): 3600 mg/kg-day
- NOAEL (Mus musculus [2]; [10]): 2200 mg/kg-day
- LD50 (Rattus norvegicus [3]; injection, Intraperitoneal): 6710 mg/kg and 5100 mg/kg
- LD50 (Rattus norvegicus [3]; oral): 10600 mg/kg and 7060 mg/kg
- LOAEL (Rattus norvegicus [3]; developmental): > 37700 mg/m3
- NOAEL (Rattus norvegicus [3]; developmental): ≥ 37700 mg/m3
- LOAEL (Rattus norvegicus [3]; reproduction developmental, F): 37700 mg/m3
- NOAEL (Rattus norvegicus [3]; reproduction developmental, F): 30100 mg/m3
- LOAEL (% diet) (Rattus norvegicus [3]; [11]): 5
- NOAEL (% diet) (Rattus norvegicus [3]; [11]): 2
- LOAEL (% diet) (Rattus norvegicus [3]; [12]): ≤ 5
- NOAEL (% diet) (Rattus norvegicus [3]; [12]): < 5
- LOAEL (% diet) (Rattus norvegicus [3]; [13]): > 5
- NOAEL (% diet) (Rattus norvegicus [3]; [13]): ≤ 5
- LOAEL (Rattus norvegicus [4]): 319 mg/kg-day
- NOAEL (Rattus norvegicus [4]): 31.9 mg/kg-day

- LEL (Mus musculus [5]; injection, subcutaneous): 0.5 µg/0.1 mL
- LEL (fractional dose of pill) (Mus musculus [5]; oral): 0.001
- LEL (Rattus norvegicus [6]; duration: 3 days, injection, intraperitoneal): 0.001 mg/day
- LEL (Rattus norvegicus [6]; duration: 3 days, oral): 0.01 mg/kg-day
- LEL (Rattus norvegicus [6]; duration: 14 days, oral): 0.001 mg/day
SMILES: C#C[C@]1(O)CC[C@H]2[C@@H]3CCc4cc(OC)ccc4[C@H]3CC[C@@]21C [Mestranol]

SMILES: CNN [Methylhydrazine]
- NOAEL (Rattus norvegicus [1]; developmental, duration: 13 days, gavage, F, Sprague-Dawley, developmental): 1 mg/kg-day

SMILES: c1ccc(Nc2ccc(Nc3ccccc3)cc2)cc1 [N,N'-Diphenyl-p-phenylenediamine]
- NOEL (Rattus norvegicus [7]): 1000 mg/kg-day
- NOAEL (Rattus norvegicus [1]; reproduction developmental, diet, F, Sprague-Dawley): 0.3 mg/kg-day

SMILES: O=[N+]([O-])[O-].O=[N+]([O-])[O-].O=[N+]([O-])[O-].[Sm+3] [Samarium nitrate]
- LOAEL (Rattus norvegicus [1]; chronic, duration: 5 months, drinking water, M/F, Sprague-Dawley): 0.438 mg/kg-day

SMILES: [Na+].[O]=[Nb](=[O])[O-] [Sodium niobate (NaNbO3)]
- LOAEL (Mus musculus [8]): 1.55 mg/kg-day
- NOAEL (Mus musculus [8]): 0.155 mg/kg-day

SMILES: CC1(C)CCCCC1(C)C [Tetramethylcyclohexane]
- NOAEL (Rattus norvegicus [1]; subchronic, duration: 90 days, diet, M/F, Sprague-Dawley, Whole Body Effects): 3000 mg/kg-day

SMILES: [O-2].[Zn+2] [Zinc oxide]
- LOAEL (Rattus norvegicus [4]): 320 mg/kg-day
- NOAEL (Rattus norvegicus [4]): 160 mg/kg-day

SMILES: Cc1cc(N)ccc1N.O=S(=O)(O)O [p-Toluenediamine sulfate]
- NOAEL (Rattus norvegicus [1]; subchronic, duration: 13 weeks, gavage, M, Sprague-Dawley): 2.5 mg/kg-day
